Molecular target: T1, topoisomerase I (Homo sapiens, UniProt P11387)
T1 construct: gene TOP1
T1 sequence (P11387 2-765): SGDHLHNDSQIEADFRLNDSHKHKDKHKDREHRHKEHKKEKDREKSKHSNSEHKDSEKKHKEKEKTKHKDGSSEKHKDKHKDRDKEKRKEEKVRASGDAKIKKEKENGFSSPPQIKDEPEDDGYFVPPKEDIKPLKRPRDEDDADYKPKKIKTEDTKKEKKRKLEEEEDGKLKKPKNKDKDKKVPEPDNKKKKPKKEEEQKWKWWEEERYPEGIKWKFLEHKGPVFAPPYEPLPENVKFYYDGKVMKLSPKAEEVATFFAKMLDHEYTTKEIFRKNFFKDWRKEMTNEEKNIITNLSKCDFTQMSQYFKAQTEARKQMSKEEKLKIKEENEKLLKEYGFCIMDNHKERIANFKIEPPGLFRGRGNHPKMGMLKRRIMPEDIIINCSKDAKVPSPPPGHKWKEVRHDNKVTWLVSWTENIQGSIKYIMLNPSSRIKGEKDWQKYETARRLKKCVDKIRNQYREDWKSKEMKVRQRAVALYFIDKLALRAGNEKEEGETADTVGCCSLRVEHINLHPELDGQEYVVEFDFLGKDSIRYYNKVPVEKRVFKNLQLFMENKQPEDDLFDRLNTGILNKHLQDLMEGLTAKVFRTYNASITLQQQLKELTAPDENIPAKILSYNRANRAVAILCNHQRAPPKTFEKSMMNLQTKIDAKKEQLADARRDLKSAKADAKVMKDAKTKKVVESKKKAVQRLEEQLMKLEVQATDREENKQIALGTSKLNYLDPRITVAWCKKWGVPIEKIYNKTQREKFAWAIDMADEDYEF
Assay: plasmid DNA relaxation assay (supercoiled pBR322, agarose gel) with commercial human topoisomerase I
Format: biochemical

O=c1[nH]c(-c2ccc(O)cc2)nc2c1Cc1c(ccc3ccccc13)O2 [CPO, chromenopyrimidinone]
EC50: 3.6 µM

From PMC7281429, “Chromenopyrimidinone Controls Stemness and Malignancy by suppressing CD133 Expression in Hepatocellular Carcinoma” (Cancers, 2020)
